From US20050106242A1, “Melt blend dispersions” (priority 2003, published 2005)
In brackets after ≈: the same amount, converted by molar mass.

Tests used:
[1] = Particle size of progesterone precipitation in AIF (Horiba LA-910 laser scattering); assay type: physicochemical; settings: ~4 mg progesterone in 15 ml AIF, shaken at 37° C.; FIG. 1 and FIG. 2
Experimental: Samples as indicated below containing ˜4 mg of progesterone were added to 15 ml AIF and then were shaken in a water bath at 37° C. The particle size of the progesterone precipitation was measured with Horiba LA-910 laser scattering particle size analyzer.

[2] = Water solubility of progesterone in artificial intestinal fluid; assay type: physicochemical; settings: fassgf or other biorelevant; at 37° C. in artificial intestinal fluid (AIF)

mean particle size [1]: 72.4 μm
solubility [2]: 12 µg/mL (≈ 38.2 µM)
SMILES: CC(=O)[C@H]1CC[C@H]2[C@@H]3CCC4=CC(=O)CC[C@]4(C)[C@H]3CC[C@]12C [Progesterone, pregn-4-ene-3,20-dione]
